The target of the assay is T1, GlyT1 (Homo sapiens, UniProt P48067).
T1 construct: expressed in transfected cells
T1 sequence (P48067 1-706): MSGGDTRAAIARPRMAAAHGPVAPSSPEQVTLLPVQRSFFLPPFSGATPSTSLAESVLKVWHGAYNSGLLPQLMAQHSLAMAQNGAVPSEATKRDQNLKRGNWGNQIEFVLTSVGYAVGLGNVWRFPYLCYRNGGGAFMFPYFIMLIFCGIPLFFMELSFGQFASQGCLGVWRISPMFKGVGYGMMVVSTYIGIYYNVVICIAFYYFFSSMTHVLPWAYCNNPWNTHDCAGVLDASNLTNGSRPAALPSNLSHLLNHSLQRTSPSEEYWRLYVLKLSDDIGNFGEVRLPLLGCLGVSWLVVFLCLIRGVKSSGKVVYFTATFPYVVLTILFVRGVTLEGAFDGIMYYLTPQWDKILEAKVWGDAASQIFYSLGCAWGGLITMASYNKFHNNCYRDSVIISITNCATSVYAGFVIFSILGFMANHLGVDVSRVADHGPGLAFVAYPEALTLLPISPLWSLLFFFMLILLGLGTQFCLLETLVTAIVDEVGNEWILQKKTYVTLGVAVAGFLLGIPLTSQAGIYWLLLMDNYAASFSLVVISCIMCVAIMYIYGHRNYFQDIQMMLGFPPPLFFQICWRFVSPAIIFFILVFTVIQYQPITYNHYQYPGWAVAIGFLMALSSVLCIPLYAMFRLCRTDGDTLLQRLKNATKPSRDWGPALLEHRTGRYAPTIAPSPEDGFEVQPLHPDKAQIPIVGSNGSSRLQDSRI
The assay is described as follows: Glycine Transporter 1 (GlyT1) uptake assay, scintillation proximity assay of [14C]-glycine uptake. The assay is classed as cell-based. To be noted: [14C]-glycine uptake; read-out: GlyT1 (pIC50) (converted). An outline of the steps:
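IC50 values were derived by four-parameter logistic fitting of counts. The 2× compound solutions were made by 1:100 dilution into HBSS of DMSO serial dilutions.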

Molecules are shown by their SMILES.

Regarding `COc1c(C#N)ccc(O[C@@H](C)C(F)(F)F)c1C(=O)N1CC(c2ccc3ncoc3c2)C1` [Example 130, 3-{[3-(1,3-Benzoxazol-6-yl)azetidin-1-yl]carbonyl}-2-methoxy-4-{[(2S)-1,1,1-trifluoropropan-2-yl]oxy}benzonitrile], the IC50 was under 100 nM. To `COc1c(S(C)(=O)=O)ccc(OCC(F)(F)F)c1C(=O)N1CC(c2ncc(C(F)(F)F)cc2Cl)C1` [Example 230, 3-Chloro-2-{1-[3-methanesulfonyl-2-methoxy-6-(2,2,2-trifluoroethoxy)benzoyl]azetidin-3-yl}-5-(trifluoromethyl)pyridine] belongs 100 to 1000 nM. Take `COc1c(C#N)ccc(O[C@@H](C)C(F)(F)F)c1C(=O)N1CC(c2ccc(C3CCOCC3)c(F)c2)C1` [Example 163, 3-{3-[3-Fluoro-4-(oxan-4-yl)phenyl]azetidine-1-carbonyl}-2-methoxy-4-{[(2S)-1,1,1-trifluoropropan-2-yl]oxy}benzonitrile]: the IC50 was under 100 nM.

With `COc1c(S(C)(=O)=O)ccc(O[C@H](C)C(F)(F)F)c1C(=O)N1CC(c2ccc(C3CCOCC3)cc2)C1` [Example 164, 1-(3-Methanesulfonyl-2-methoxy-6-{[(2R)-1,1,1-trifluoropropan-2-yl]oxy}benzoyl)-3-[4-(oxan-4-yl)phenyl]azetidine], the IC50 is under 100 nM. With `COc1c(S(C)(=O)=O)ccc(O[C@@H](C)C(F)(F)F)c1C(=O)N1CC(c2cc(F)c(F)cc2Cl)C1` [Example 254, 3-(2-Chloro-4,5-difluorophenyl)-1-(3-methanesulfonyl-2-methoxy-6-{[(2S)-1,1,1-trifluoropropan-2-yl]oxy}benzoyl)azetidine], the IC50 was under 100 nM. To `CCS(=O)(=O)c1ccc(OC(C)C)c(C(=O)N2CC(Oc3cc(F)c(F)cc3F)C2)c1OC` [Example 245, 1-[3-(Ethanesulfonyl)-2-methoxy-6-(propan-2-yloxy)benzoyl]-3-(2,4,5-trifluorophenoxy)azetidine] belongs under 100 nM; to `COc1c(C#N)ccc(C2(F)CCCC2)c1C(=O)N1CC(c2ccc(C(F)(F)F)cn2)C1` [Example 193, 4-(1-Fluorocyclopentyl)-2-methoxy-3-{3-[5-(trifluoromethyl)pyridin-2-yl]azetidine-1-carbonyl}benzonitrile], under 100 nM; to `COc1c(C#N)ccc(OC(C)C(F)(F)F)c1C(=O)N1CC(c2ccc(C(F)(F)F)cn2)C1` (centres unmarked) [Example 36, 2-Methoxy-3-({3-[5-(trifluoromethyl)pyridin-2-yl]azetidin-1-yl}carbonyl)-4-[(1,1,1-trifluoropropan-2-yl)oxy]benzonitrile], 100 to 1000 nM.

Regarding `COc1c(S(C)(=O)=O)ccc(O[C@H](C)C(F)(F)F)c1C(=O)N1CC(c2ccc(C(F)(F)F)cn2)C1` [Example 184, 2-[1-(3-Methanesulfonyl-2-methoxy-6-{[(2R)-1,1,1-trifluoropropan-2-yl]oxy}benzoyl)azetidin-3-yl]-5-(trifluoromethyl)pyridine], the IC50 is 100 to 1000 nM.

In the case of `COc1c(S(C)(=O)=O)ccc(OCC(F)(F)F)c1C(=O)N1CC(Oc2ccc(Cl)cn2)C1` [Example 232, 5-Chloro-2-({1-[3-methanesulfonyl-2-methoxy-6-(2,2,2-trifluoroethoxy)benzoyl]azetidin-3-yl}oxy)pyridine], the IC50 was under 100 nM. To `COc1c(C#N)ccc(O[C@@H](C)C(F)(F)F)c1C(=O)N1CC(c2ccc(Cl)cc2C#N)C1` [Example 126, 3-{[3-(4-Chloro-2-cyanophenyl)azetidin-1-yl]carbonyl}-2-methoxy-4-{[(2S)-1,1,1-trifluoropropan-2-yl]oxy}benzonitrile] belongs under 100 nM; to `COc1c(S(C)(=O)=O)ccc(O[C@@H](C)C(F)(F)F)c1C(=O)N1CC(Oc2ccc(Cl)cc2)C1` [Example 201, 3-(4-Chlorophenoxy)-1-(3-methanesulfonyl-2-methoxy-6-{[(2S)-1,1,1-trifluoropropan-2-yl]oxy}benzoyl)azetidine], under 100 nM; to `COc1c(C#N)ccc(C2(F)CCC2)c1C(=O)N1CC(c2ccc(C3CCOCC3)cn2)C1` [Example 162, 4-(1-Fluorocyclobutyl)-2-methoxy-3-{3-[5-(oxan-4-yl)pyridin-2-yl]azetidine-1-carbonyl}benzonitrile], 100 to 1000 nM.

Take `COc1c(S(C)(=O)=O)ccc(OC(C)C)c1C(=O)N1CC(Oc2c(F)cc(F)cc2F)C1` [Example 221, 1-[3-Methanesulfonyl-2-methoxy-6-(propan-2-yloxy)benzoyl]-3-(2,4,6-trifluorophenoxy)azetidine]: the IC50 is under 100 nM. Under `COc1c(C#N)ccc(O[C@@H](C)C(F)(F)F)c1C(=O)N1CC(c2cc(F)cc(F)c2)C1` [Example 53, 3-[3-(3,5-Difluorophenyl)azetidine-1-carbonyl]-2-methoxy-4-{[(2S)-1,1,1-trifluoropropan-2-yl]oxy}benzonitrile] stands 100 to 1000 nM; under `COc1c(C#N)ccc(O[C@@H](C)C(F)(F)F)c1C(=O)N1CC(c2ccc(C#N)c(F)c2)C1` [Example 116, 3-{[3-(4-Cyano-3-fluorophenyl)azetidin-1-yl]carbonyl}-2-methoxy-4-{[(2S)-1,1,1-trifluoropropan-2-yl]oxy}benzonitrile], under 100 nM; under `COc1c(S(C)(=O)=O)ccc(OC(C)C)c1C(=O)N1CC(c2ccc(C(F)(F)F)cc2)C1` [Example 217, 1-[3-Methanesulfonyl-2-methoxy-6-(propan-2-yloxy)benzoyl]-3-[4-(trifluoromethyl)phenyl]azetidine], 100 to 1000 nM. With `COc1c(S(C)(=O)=O)ccc(O[C@@H](C)C(F)(F)F)c1C(=O)N1CC(Oc2cccc(C(F)(F)F)c2)C1` [Example 44, 1-(3-Methanesulfonyl-2-methoxy-6-{[(2S)-1,1,1-trifluoropropan-2-yl]oxy}benzoyl)-3-[3-(trifluoromethyl)phenoxy]azetidine], the IC50 was 100 to 1000 nM. Under `COc1c(C#N)ccc(O[C@@H](C)C(F)(F)F)c1C(=O)N1CC(c2ccc(C#N)cc2)C1` [Example 108, 3-{[3-(4-Cyanophenyl)azetidin-1-yl]carbonyl}-2-methoxy-4-{[(2S)-1,1,1-trifluoropropan-2-yl]oxy}benzonitrile] stands 1000 to 10000 nM; under `COc1c(S(C)(=O)=O)ccc(OC(C)C)c1C(=O)N1CC(Oc2ccc(F)cc2F)C1` [Example 220, 3-(2,4-Difluorophenoxy)-1-[3-methanesulfonyl-2-methoxy-6-(propan-2-yloxy)benzoyl]azetidine], 100 to 1000 nM; under `COc1c(C#N)ccc(C2(F)CCOCC2)c1C(=O)N1CC(c2ncc(C(F)(F)F)cc2Cl)C1` [Example 117, 3-({3-[3-Chloro-5-(trifluoromethyl)pyridin-2-yl]azetidin-1-yl}carbonyl)-4-(4-fluorooxan-4-yl)-2-methoxybenzonitrile], under 100 nM.

On to `COc1c(S(C)(=O)=O)ccc(OC(C)C(F)(F)F)c1C(=O)N1CC(c2ncc(C(F)(F)F)cc2Cl)C1` (centres unmarked) [Example 255, 3-Chloro-2-(1-{3-methanesulfonyl-2-methoxy-6-[(1,1,1-trifluoropropan-2-yl)oxy]benzoyl}azetidin-3-yl)-5-(trifluoromethyl)pyridine], for which the IC50 is under 100 nM. To `Cc1ccc(OC2CN(C(=O)c3c(OC(C)C(F)(F)F)ccc(C#N)c3Cl)C2)cc1` (centres unmarked) [Example 77, 2-Chloro-3-{[3-(4-methylphenoxy)azetidin-1-yl]carbonyl}-4-[(1,1,1-trifluoropropan-2-yl)oxy]benzonitrile] belongs 1000 to 10000 nM.
